The nature of data set [1]: Pharmacokinetics of the subject combination (steady state). As to conditions: for AUC0-12 relative to that of bupropion / Cmax relative to peak level of bupropion: metabolite; for apparent elimination half-life: metabolites of bupropion; for changes in AUC and Cmax with dose (dose proportionality): steady state, co-administered with bupropion.
Data set [2] is described as follows: Solubility of the powder in water.
A short description of data set [3]: Co-administration of paroxetine and the subject combination in healthy volunteers (Example 3). As to conditions: 29 healthy volunteers; paroxetine co-administered with the subject combination.
The nature of data set [4]: Pharmacokinetics in moderate hepatic impairment vs matched healthy subjects. As to conditions: patients having moderate hepatic impairment (Group 2). The source says: (§1) Data are GMRs and 90% CIs. References used are the matched healthy subjects for renal and hepatic impairment studies, and extensive or ultra-extensive CYP2D6 metabolizers respectively.
A short description of data set [5]: Effect of food on pharmacokinetics of the subject combination. As to conditions: subject combination administered with food.
The nature of data set [6]: Effect of concomitant 20 mg paroxetine on dextromethorphan exposure (Example 6). The note with it: tablet of Example 4 twice daily, vs without paroxetine.
A short description of data set [7]: Pharmacokinetics in moderate renal impairment vs matched controls.
Source text: as §1

Data set [8] can be described thus: Pharmacokinetics in CYP2D6 poor metabolizers vs extensive metabolizers.
Source text: Approximately 7% to 10% of Caucasians and 3% to 8% of African Americans lack the capacity to metabolize CYP2D6 substrates and are classified as poor metabolizers.
as §1

A further data set concerns plasma protein. The data set is described as follows: Plasma protein binding. As to conditions: metabolite.
For data set [9] the following is noted: human, in vivo.
For data set [10], the system named is patients with treatment-resistant depression or MDD. As to conditions: cited from earlier work.
Setting [11] is: after administration of the subject combination.
The mark [12] stands for this setting: 7 subjects with moderate (GFR 30-60 mL/min) renal impairment vs 6 matched controls.
Where [13] appears, read: patients having moderate renal impairment.

Like-named read-outs stand apart in the source and are kept apart here.

As to `CC(NC(C)(C)C)C(O)c1cccc(Cl)c1` (centres unmarked) [erythrohydroxybupropion], in data set [1] (setting [11]), the “AUC0-12 relative to that of bupropion” value is reported as “about 1.2 times” and the “Cmax relative to peak level of bupropion” value was “approximately equal to”. Besides, the apparent elimination half-life in data set [1] was around 44 h.
With `Br.COc1ccc2c(c1)[C@]13CCCC[C@@H]1[C@H](C2)N(C)CC3` [dextromethorphan, morphinan, 3-methoxy-17-methyl-, (9α, 13α, 14α), hydrobromide monohydrate], the solubility in water result in data set [2] was “sparingly soluble”. In data set [3], the “increase of overall exposure by paroxetine” value is given as 2.5 fold. The “AUC0-12 and Cmax compared with healthy patients” value in [4] is given as “not significantly different”. Further, in data set [5], the “change of Cmax with food” value was “unchanged” and the “decrease of AUC0-12 with food” value is recorded as 14%. For the same molecule, in data set [1] (following 8 days of administration of the subject combination in extensive metabolizers), the “increase of mean elimination half-life compared to dextromethorphan given without bupropion” value was “approximately 3 fold”. For the same molecule, the “changes in AUC and Cmax with dose (dose proportionality)” value in [1] (varying doses of bupropion (75 to 150 mg)) is given as “less than dose-proportional”. In addition, the “changes in AUC and Cmax with dose (dose proportionality)” value in data set [1] (varying doses of dextromethorphan (30 to 60 mg)) is reported as “greater than dose-proportional”. Further, in [1] (subject combination), the “accumulation ratio at steady state based on AUC0-12” value is “about 32” and the “accumulation ratio at steady state based on Cmax” value is reported as “about 20”. In data set [6], the “increase of AUC0-12 with concomitant paroxetine” value turned out to be 2.69 fold and the “increase of Cmax with concomitant paroxetine” value amounted to 2.38 fold. In data set [7] (setting [12]), the increase of exposure entry is recorded as “approximately 2 fold” and the reduction of clearance is on record as 50%. For the same molecule, in [7] (setting [13]), the “increase in AUC0-12” value is given as 2.21 fold and the “increase in Cmax” value was 2.10 fold. In data set [8] (3 poor metabolizers), the “increase in AUC0-12 compared to extensive metabolizers” value was around 3.4 fold and the “increase in Cmax compared to extensive metabolizers” value is recorded as around 3 fold. Besides, in [8] (12 poor metabolizers treated in efficacy trials), the “steady state plasma concentrations compared to non-poor metabolizers” value is listed as “generally higher”.
As to `C[C@H](NC(C)(C)C)[C@@H](O)c1cccc(Cl)c1` [threohydroxybupropion], in the data set on plasma protein, the “extent of protein binding compared with bupropion” value is “about half that seen with bupropion”. In data set [1] (setting [11]), the “AUC0-12 relative to that of bupropion” value is “about 7 times” and the “Cmax relative to peak level of bupropion” value was “about 5 times”. Further, the apparent elimination half-life in data set [1] was around 33 h.
As to `Fc1ccc([C@@H]2CCNC[C@H]2COc2ccc3c(c2)OCO3)cc1` [paroxetine], in data set [9], the “increase of overall exposure when co-administered with the subject combination” value came out at 1.2 fold.
Regarding `CC(NC(C)(C)C)C(=O)c1cccc(Cl)c1.Cl` (racemic) [bupropion, (±)-1-(3-chlorophenyl)-2-[(1,1-dimethylethyl)amino]-1-propanone hydrochloride], the solubility in water entry in [2] is “highly soluble”. The “AUC0-12 and Cmax compared with healthy patients” value in [4] was “not significantly different”. Also, the “median Tmax” value in data set [1] (setting [11]) was “about 2 hours”. Further, in [7] (human, in vivo), the “increase in AUC0-12” value amounted to 1.80 fold, the “increase in Cmax” value is listed as 1.87 fold, the increase of exposure result is recorded as “approximately 2 fold” and the reduction of clearance is on record as 50%.
As to `CN[C@]1(c2ccccc2Cl)CCCCC1=O` [esketamine, Esketamine], the “Incidence of Sedation (MOAA/S score <5)” value in [10] (56 mg + oral AD, patients <65 years with TRD, fixed-dose study) is given as 50%; in [10] (84 mg + oral AD, patients <65 years with TRD, fixed-dose study) it was 61%; in [10] (28 to 84 mg + oral AD, patients ≥65 years with TRD, flexible-dose study), 49%. The “incidence of sedation (MOAA/S score <5) compared to placebo plus oral antidepressant” value in [10] (adults with MDD with acute suicidal ideation or behavior) is recorded as “higher incidence of sedation”.
In the case of `C[C@H]1NC(C)(C)CO[C@]1(O)c1cccc(Cl)c1` [hydroxybupropion], in data set [1] (setting [11]), the “AUC0-12 relative to that of bupropion” value is on record as “about 19 times” and the “Cmax relative to peak level of bupropion” value is recorded as “approximately 14 times”. Besides, in data set [1], the apparent elimination half-life entry is “approximately 35 hours”.

The values are drawn from patent publication US20250268889A1, “COMPOUNDS AND COMBINATIONS THEREOF FOR TREATING NEUROLOGICAL AND PSYCHIATRIC CONDITIONS” (priority 2022, published 2025).
